≈ marks a conversion by molar mass, not a printed value. Read-outs that look alike come from different tables or passages of the source. Square brackets hold non-standard residues; d marks the D form. Ends that are not written are not given here. Peptide text beside a SMILES is read from it. Orn = NCCC[C@H](N)C(=O)O
Experiments:
[1] = test system: Pseudomonas sp.; test: MIC of peptides incubated with human serum; assay type: cell-based; settings: peptide incubated with human serum 1:1; 10^6 cfu/mL Pseudomonas sp., 4 h
Experimental: (§1) Incubations were kept at 37 °C for 24 h. Results are the average of three independent studies.

[2] = test system: Shigella flexneri; settings: 50 μL from MIC wells seeded into Petri plates, 24 h; lowest concentration without detectable growth
Experimental: The antibiotic activity was defined by the minimum peptide concentration where the microorganism is unable to grow. The assay was done in polypropylene 96-well plates (Greiner, Frickenhausen, Germany) to avoid peptide binding to plate wells. Peptides were dissolved in water containing 0.4% w/v bovine serum albumin (BSA) and 0.02% v/v glacial acetic acid to prevent self-aggregation, following the reference protocol by Wiegand et al.,[42] based on the classical microtiter broth dilution recommended by the National Committee of Laboratory Safety and Standards (NCLSS). Initial bacteria inoculum was adjusted to 5 × 10^5 CFU/mL in Mueller-Hinton (MH) medium. Incubations were kept at 37 °C for 24 h. Results are the average of three independent studies. […] To determine the MBC, 50 μL from all wells were seeded into Petri plates and incubated for 24 h. The MBC concentration was attributed to the lowest concentration without detectable bacterial growth for each peptide.

[3] = test system: A. baumannii; assay type: cell-based, Acinetobacter baumannii; settings: 24 h
Experimental: (§2) Human serum was purchased from Sigma (St Louis, USA).
as §1

[4] = test system: S. flexneri; settings: 24 h
Text: Purified horse red blood cells were acquired from Thermo Fisher Scientific (Hampshire, England). Human serum was purchased from Sigma (St Louis, USA). E. coli was obtained from the Coli Genetic Stock Center (BW25113). S. flexneri (ATCC 29903), A. baumannii (ATCC 15308), Pseudomonas sp. (ATCC 15915), and S. enterica (ATCC 14028) were obtained from the CECT (Valencia, Spain). Clinical strains were supplied by the Vall d’Hebron Hospital (Barcelona, Spain). MRC5 fibroblasts were obtained from the Cytometry and Cell Culture Facility (SCAC, UAB) and originally purchased from ATCC.
The antibiotic activity was defined by the minimum peptide concentration where the microorganism is unable to grow. The assay was done in polypropylene 96-well plates (Greiner, Frickenhausen, Germany) to avoid peptide binding to plate wells. Peptides were dissolved in water containing 0.4% w/v bovine serum albumin (BSA) and 0.02% v/v glacial acetic acid to prevent self-aggregation, following the reference protocol by Wiegand et al.,[42] based on the classical microtiter broth dilution recommended by the […]. Initial bacteria inoculum was adjusted to 5 × 10^5 CFU/mL in Mueller-Hinton (MH) medium. Incubations were kept at 37 °C for 24 h. Results are the average of three independent studies. MIC assays in the presence of serum were performed by incubating the peptide with human serum at a 1:1 ratio. Then, 10^6 cfu/mL of Pseudomonas sp. were incubated with serial dilutions of the peptides for 4 h. To determine the MBC, 50 μL from all wells were seeded into Petri plates and incubated for 24 h. The MBC concentration was attributed to the lowest concentration without detectable bacterial growth for each peptide.

[5] = test system: horse red blood cells; test: Hemolytic activity; assay type: cell-based
Experimental: The peptide toxicity was determined detecting the disruption of horse red blood cells, following a previous assay report.[35] 10-fold diluted cells in PBS were centrifuged three times at 800g to eliminate the hemoglobin from disrupted cells. After the last resuspension, erythrocytes were incubated with the peptides for 4 h at 37 °C. The detection was done measuring the supernatant absorbance in a VICTOR3 multilabel plate reader (Perkin Elmer, Waltham, Massachusetts) at 540 nm in a microplate reader. Percentage of hemolysis was calculated through a pattern done with dilutions of total cell lysis done with a 1% Triton X-100 buffer. Results are the average of three independent studies.

[6] = test system: Pseudomonas sp.; test: MIC, broth microdilution; assay type: cell-based; settings: Pseudomonas sp. ATCC 15915; Mueller-Hinton medium, 5 × 10^5 CFU/mL, 37 °C, 24 h; average of three independent studies
Experimental: as §2, §1

[7] = Cytotoxicity in mammalian cells (MTT assay); assay type: cell-based; settings: MRC-5 cytotoxicity (IC50)
Experimental: (§3) MRC-5 cells were grown in Eagle’s minimum essential medium (MEMα), supplemented with 10% fetal bovine serum (FBS). 96-well plates were seeded with 3 × 10^4 cells/well and cultured overnight in order to get cells adhered into the plate and then incubated with two-fold peptide serial dilutions. After 4 h of incubation, the medium containing the peptides was replaced by MEMα supplemented with FBS and 3-(4,5-dimethylthiazol-2-yl)-2,5-diphenyltetrazolium bromide (MTT) at 0.4 mg/mL and incubated for 150 min. Detection of formazan crystals in the living cells was done by cell disruption by addition of 200 μL of dimethyl sulfoxide (DMSO) followed by absorbance measuring at 600 nm in a Tecan Infinite F Nano+ microplate reader (Tecan, Germany). Results are the average of three independent studies.

[8] = test system: MRC-5 cells; test: Cytotoxicity in mammalian cells (MTT assay); assay type: cell-based
Experimental: as §3

[9] = test system: Pseudomonas sp.; test: Minimum bactericidal concentration (MBC); assay type: cell-based; settings: 50 μL from MIC wells seeded into Petri plates, 24 h; lowest concentration without detectable growth
Experimental: as §1

[10] = test system: E. coli; assay type: cell-based, Escherichia coli; settings: 24 h
Experimental: as §2, §1

[11] = test system: Salmonella enterica; assay type: cell-based; settings: 24 h
Experimental: as §1

[12] = test system: Acinetobacter baumannii; assay type: cell-based; settings: 24 h
Experimental: as §1

[13] = test system: Escherichia coli; assay type: cell-based; settings: 24 h
Experimental: as §1

[14] = test system: S. enterica; assay type: cell-based, Salmonella enterica; settings: 24 h
Experimental: as §2, §1

[15] = test system: S. typhimurium 324; test: MIC, clinical bacterial strain; assay type: cell-based
Experimental: as §2, §1

[16] = test system: E. coli 116878; test: MIC, clinical bacterial strain; assay type: cell-based
Experimental: as §2, §1

[17] = test system: E. coli cf073; test: MIC, clinical bacterial strain; assay type: cell-based
Experimental: as §2, §1

[18] = test system: A. baumannii 3880; test: MIC, clinical bacterial strain; assay type: cell-based
Experimental: as §2, §1

[19] = test system: A. baumannii 3878; test: MIC, clinical bacterial strain; assay type: cell-based
Experimental: as §2, §1

[20] = test system: A. baumannii 3862; test: MIC, clinical bacterial strain; assay type: cell-based
Experimental: as §2, §1

[21] = test system: S. typhimurium 365; test: MIC, clinical bacterial strain; assay type: cell-based
Experimental: as §2, §1

[22] = test system: P. aeruginosa 827632; test: MIC, clinical bacterial strain; assay type: cell-based
Experimental: as §2, §1

[23] = test system: P. aeruginosa 827651; test: MIC, clinical bacterial strain; assay type: cell-based
Experimental: as §2, §1

[24] = test system: A. baumannii 3879; test: MIC, clinical bacterial strain; assay type: cell-based
Experimental: as §2, §1

| Molecule | MIC in Pseudomonas sp., peptides incubated with human serum [1] [µM] | MBC Shigella flexneri [2] [µM] | MIC A. baumannii [3] [µM] | MIC S. flexneri [4] [µM] | hemolysis % (250 μM peptide) ([5]; red cells of horse, 4 h, 250) [%] | MIC Pseudomonas sp. [6] [µM] | IC50 [7] [µM] | MBC Pseudomonas sp. [9] [µM] | MIC E. coli [10] [µM] | MBC Salmonella enterica [11] [µM] | MBC Acinetobacter baumannii [12] [µM] | MBC Escherichia coli [13] [µM] | MIC S. enterica [14] [µM] | MIC S. typhimurium 324 [15] [µM] | MIC E. coli 116878 [16] [µM] | MIC E. coli cf073 [17] [µM] | MIC A. baumannii 3880 [18] [µM] | MIC A. baumannii 3878 [19] [µM] | MIC A. baumannii 3862 [20] [µM] | MIC S. typhimurium 365 [21] [µM] | other results |
| --- | --- | --- | --- | --- | --- | --- | --- | --- | --- | --- | --- | --- | --- | --- | --- | --- | --- | --- | --- | --- | --- |
| CC[C@H](C)[C@H](NC(=O)[C@H](C)NC(=O)[C@H](CCCN)NC(=O)[C@H](CCSC)NC(=O)[C@H](C)NC(=O)[C@@H](NC(=O)[C@@H](NC(=O)[C@H](CCCN)NC(=O)[C@@H]1CCCN1C(=O)[C@H](CO)NC(=O)[C@@H](NC(=O)[C@H](Cc1c[nH]cn1)NC(=O)[C@H](CCC(N)=O)NC(=O)[C@@H](NC(=O)[C@H](C)NC(=O)[C@H](Cc1ccccc1)NC(=O)[C@H](Cc1c[nH]c2ccccc12)NC(=O)[C@H](CCC(N)=O)NC(=O)[C@H](C)NC(=O)[C@H](CCCN)NC(=O)[C@@H](NC(=O)[C@H](Cc1ccccc1)NC(=O)[C@@H]1CCCN1C(=O)[C@@H](N)CCCN)[C@@H](C)O)[C@@H](C)CC)[C@@H](C)CC)[C@@H](C)O)[C@@H](C)CC)C(=O)N[C@@H](CC(N)=O)C(=O)N[C@@H](CC(N)=O)C(=O)N[C@@H](Cc1ccc(O)cc1)C(=O)N[C@@H](CCCN)C(=O)N[C@@H](Cc1c[nH]c2ccccc12)C(=O)N[C@@H](CCCN)C(N)=O [peptide 2] (H-[Orn]PFT[Orn]AQWFAIQHISP[Orn]TIAM[Orn]AINNY[Orn]W[Orn]-NH2) | 50 | 12.5 (≈ 43.8 µg/mL) | 6.25 (≈ 21.9 µg/mL) | 12.5 (≈ 43.8 µg/mL) | 10 ± 2 | 6.25 (≈ 21.9 µg/mL) | ≤ 180 | 6.25 (≈ 21.9 µg/mL) | 6.25 (≈ 21.9 µg/mL) | 25 (≈ 87.6 µg/mL) | 6.25 (≈ 21.9 µg/mL) | 6.25 (≈ 21.9 µg/mL) | 25 (≈ 87.6 µg/mL) | – | – | – | – | – | – | – | hemolysis % (250 μM peptide) [5]: 10%; IC50 ([8]; 4 h): 113 ± 8 µM |
| CC[C@H](C)[C@H](NC(=O)[C@H](C)NC(=O)[C@H](CCCN)NC(=O)[C@H](CCSC)NC(=O)[C@H](C)NC(=O)[C@@H](NC(=O)[C@@H](NC(=O)[C@H](CCCN)NC(=O)[C@@H]1CCCN1C(=O)[C@H](CO)NC(=O)[C@@H](NC(=O)[C@H](Cc1c[nH]cn1)NC(=O)[C@H](CCC(N)=O)NC(=O)[C@@H](NC(=O)[C@H](C)NC(=O)[C@H](Cc1ccccc1)NC(=O)[C@H](Cc1c[nH]c2ccccc12)NC(=O)[C@H](CCC(N)=O)NC(=O)[C@H](C)NC(=O)[C@H](CCCN)NC(=O)[C@@H](NC(=O)[C@@H](N)Cc1ccccc1)[C@@H](C)O)[C@@H](C)CC)[C@@H](C)CC)[C@@H](C)O)[C@@H](C)CC)C(=O)N[C@@H](CC(N)=O)C(=O)N[C@@H](CC(N)=O)C(=O)N[C@@H](Cc1ccc(O)cc1)C(=O)N[C@@H](CCCN)C(=O)N[C@@H](Cc1c[nH]c2ccccc12)C(=O)N[C@@H](CCCN)C(N)=O [peptide 5] (H-FT[Orn]AQWFAIQHISP[Orn]TIAM[Orn]AINNY[Orn]W[Orn]-NH2) | – | 50 (≈ 165 µg/mL) | >100 | 50 (≈ 165 µg/mL) | 11 ± 4 | 25 (≈ 82.3 µg/mL) | > 300 | 25 (≈ 82.3 µg/mL) | 25 (≈ 82.3 µg/mL) | > 100 | > 100 | 25 (≈ 82.3 µg/mL) | >100 | – | – | – | – | – | – | – | MRC-5 cytotoxicity (IC50) [8]: No toxicity was detected |
| CC[C@H](C)[C@H](NC(=O)[C@H](C)NC(=O)[C@H](CCCN)NC(=O)[C@H](CCSC)NC(=O)[C@H](C)NC(=O)[C@@H](NC(=O)[C@@H](NC(=O)[C@H](CCCN)NC(=O)[C@@H]1CCCN1C(=O)[C@H](CO)NC(=O)[C@@H](NC(=O)[C@H](Cc1c[nH]cn1)NC(=O)[C@H](CCC(N)=O)NC(=O)[C@@H](NC(=O)[C@H](C)NC(=O)[C@H](Cc1ccccc1)NC(=O)[C@H](Cc1c[nH]c2ccccc12)NC(=O)[C@H](CCC(N)=O)NC(=O)[C@H](C)NC(=O)[C@H](CCCN)NC(=O)[C@@H](NC(=O)[C@H](Cc1ccccc1)NC(=O)[C@H]1CCCN1C(=O)[C@@H](N)CCCN)[C@@H](C)O)[C@@H](C)CC)[C@@H](C)CC)[C@@H](C)O)[C@@H](C)CC)C(=O)N[C@@H](CC(N)=O)C(=O)N[C@@H](CC(N)=O)C(=O)N[C@@H](Cc1ccc(O)cc1)C(=O)N[C@@H](CCCN)C(=O)N[C@@H](Cc1c[nH]c2ccccc12)C(=O)N[C@@H](CCCN)C(N)=O [peptide 6] (H-[Orn][dP]FT[Orn]AQWFAIQHISP[Orn]TIAM[Orn]AINNY[Orn]W[Orn]-NH2) | – | 50 (≈ 175 µg/mL) | 12.5 (≈ 43.8 µg/mL) | 50 (≈ 175 µg/mL) | 1.1 ± 0.9 | 1.56 (≈ 5.47 µg/mL) | 230 ± 40 | 1.56 (≈ 5.47 µg/mL) | 3.13 (≈ 11 µg/mL) | 50 (≈ 175 µg/mL) | 12.5 (≈ 43.8 µg/mL) | 3.13 (≈ 11 µg/mL) | 50 (≈ 175 µg/mL) | 25 (≈ 87.6 µg/mL) | 25 (≈ 87.6 µg/mL) | 6.25 (≈ 21.9 µg/mL) | 12.5 (≈ 43.8 µg/mL) | 0.78 (≈ 2.73 µg/mL) | 1.56 (≈ 5.47 µg/mL) | 25 (≈ 87.6 µg/mL) | MIC P. aeruginosa 827632 [22]: >100 µM; MIC P. aeruginosa 827651 [23]: 25 µM (≈ 87.6 µg/mL); MIC A. baumannii 3879 [24]: 3.13 µM (≈ 11 µg/mL) |
| RPFTRAQWFAIQHISPRTIAMRAINNYRWR-NH2 [peptide 1, hECP30] | 25 | 3.13 | – | 3.13 | – | 1.56 | 23 ± 4 | 1.56 | 1.56 | 12.5 | – | 1.56 | 12.5 | 6.25 | 6.25 | 3.13 | 1.56 | 1.56 | 0.78 | 6.25 | MIC A. baumannii ([3]; A. baumannii ATCC 15308, Mueller-Hinton medium, 5 × 10^5 CFU/mL, 37 °C, average of three independent studies): 1.56 µM; hemolytic activity at 10-fold the MIC ([5]; red cells of horse, 4 h): below 10%; MBC Acinetobacter baumannii ([12]; 50 μL from MIC wells seeded into Petri plates, lowest concentration without detectable growth): 1.56 µM; MIC P. aeruginosa 827632 [22]: 12.5 µM; MIC P. aeruginosa 827651 [23]: 25 µM; MIC A. baumannii 3879 [24]: 1.56 µM |

From publication PMC8483441 (Journal of Medicinal Chemistry, 2021)
